According to PubChem BioAssay AID256 (DTP/NCI, 2004):
“And” between values parts separate entries of the source, which are not always exact repeats. Equal entries are not always repeated. Inconclusive results and toxic doses are left out. The calls were made as follows: active = survival T/C of 150% or more; inactive = T/C below 125% in these data.

System: CD2F1 mice, L1210 leukemia ip, survival T/C
Assay: NCI In Vivo Anticancer Drug Screen. Data for tumor model L1210 Leukemia (intraperitoneal) in CD2F1 (CDF1) mice
Conditions: higher = longer survival
In short: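 Antitumor effect is scored in animals hosting a serially transplanted tumor. Values compare compound-dosed animals against vehicle-only controls as a simple quotient.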

[1] = endpoint: mean survival time, dose: 50.0 mg/kg/injection, schedule: Q04DX002 (ip), vehicle: saline with Tween-80
[2] = endpoint: mean survival time, dose: 100.0 mg/kg/injection, schedule: Q04DX002 (ip), vehicle: saline with Tween-80
[3] = endpoint: mean survival time, dose: 100.0 mg/kg/injection, schedule: Q01DX001 (ip), vehicle: saline
[4] = endpoint: mean survival time, dose: 200.0 mg/kg/injection, schedule: Q01DX001 (ip), vehicle: saline
[5] = endpoint: mean survival time, dose: 400.0 mg/kg/injection, schedule: Q01DX001 (ip), vehicle: saline
[6] = endpoint: mean survival time, dose: 50.0 mg/kg/injection, schedule: Q01DX009 (ip), vehicle: saline with Tween-80
[7] = endpoint: mean survival time, dose: 100.0 mg/kg/injection, schedule: Q01DX009 (ip), vehicle: saline with Tween-80
[8] = endpoint: mean survival time, dose: 100.0 mg/kg/injection, schedule: Q04DX003 (ip), vehicle: Klucel (hydroxypropylcellulose) (HPC)
[9] = endpoint: mean survival time, dose: 200.0 mg/kg/injection, schedule: Q04DX003 (ip), vehicle: Klucel (hydroxypropylcellulose) (HPC)
[10] = endpoint: mean survival time, dose: 100.0 mg/kg/injection, schedule: Q04DX003 (ip), vehicle: saline with Tween-80
[11] = endpoint: mean survival time, dose: 200.0 mg/kg/injection, schedule: Q01DX009 (ip), vehicle: saline with Tween-80
[12] = endpoint: mean survival time, dose: 200.0 mg/kg/injection, schedule: Q04DX003 (ip), vehicle: saline with Tween-80
[13] = endpoint: mean survival time, dose: 400.0 mg/kg/injection, schedule: Q01DX009 (ip), vehicle: saline with Tween-80
[14] = endpoint: mean survival time, dose: 400.0 mg/kg/injection, schedule: Q04DX003 (ip), vehicle: saline with Tween-80
[15] = endpoint: mean survival time, dose: 25.0 mg/kg/injection, schedule: Q01DX009 (ip), vehicle: saline with Tween-80
[16] = endpoint: mean survival time, dose: 100.0 mg/kg/injection, schedule: Q01DX001 (ip), vehicle: saline with Tween-80
[17] = endpoint: mean survival time, dose: 200.0 mg/kg/injection, schedule: Q01DX001 (ip), vehicle: saline with Tween-80
[18] = endpoint: mean survival time, dose: 400.0 mg/kg/injection, schedule: Q01DX001 (ip), vehicle: saline with Tween-80

Measured: T/C

CCNC(=O)[B-][N+](C)(C)C
inactive: endpoint: median survival time, dose: 12.5 mg/kg/injection, schedule: Q01DX009 (ip), vehicle: Klucel (hydroxypropylcellulose) (HPC) 108 % of control | endpoint: median survival time, dose: 25.0 mg/kg/injection, schedule: Q01DX009 (ip), vehicle: Klucel (hydroxypropylcellulose) (HPC) 106 % of control | endpoint: median survival time, dose: 50.0 mg/kg/injection, schedule: Q01DX009 (ip), vehicle: Klucel (hydroxypropylcellulose) (HPC) 106 % of control | endpoint: median survival time, dose: 100.0 mg/kg/injection, schedule: Q01DX009 (ip), vehicle: Klucel (hydroxypropylcellulose) (HPC) 107 % of control | endpoint: median survival time, dose: 200.0 mg/kg/injection, schedule: Q01DX009 (ip), vehicle: Klucel (hydroxypropylcellulose) (HPC) 106 % of control

COc1c(NC(=O)Nc2ccccc2C)cccc1[N+](=O)[O-]
inactive: [1] 94 % of control | [2] 90 % of control and 96 % of control

CC(C)C(C)c1ccccc1 (stereo unspecified)
inactive: [3] 100 % of control | [4] 100 % of control | [5] 98 % of control

CC1(C)C=Cc2ccccc21
inactive: [6] 113 % of control | [7] 113 % of control

COc1cccc2c1C(=O)c1c(O)c3c(c(O)c1C2=O)C[C@@](O)(C(=O)CN1CCN(C)CC1)C[C@@H]3OC1CC(N)C(O)C(C)O1 (stereo partly specified)
inactive: endpoint: mean survival time, dose: 6.25 mg/kg/injection, schedule: Q04DX003 (ip), vehicle: water 88 % of control | endpoint: mean survival time, dose: 12.5 mg/kg/injection, schedule: Q04DX003 (ip), vehicle: water 90 % of control | endpoint: mean survival time, dose: 25.0 mg/kg/injection, schedule: Q04DX003 (ip), vehicle: water 90 % of control | endpoint: mean survival time, dose: 50.0 mg/kg/injection, schedule: Q04DX003 (ip), vehicle: water 91 % of control | endpoint: mean survival time, dose: 100.0 mg/kg/injection, schedule: Q04DX003 (ip), vehicle: water 86 % of control

CCN=C(N)c1ncnnc1N
inactive: endpoint: mean survival time, dose: 100.0 mg/kg/injection, schedule: Q01DX001 (ip), vehicle: carboxymethylcellulose (CMC) 104 % of control | endpoint: mean survival time, dose: 200.0 mg/kg/injection, schedule: Q01DX001 (ip), vehicle: carboxymethylcellulose (CMC) 102 % of control | endpoint: mean survival time, dose: 400.0 mg/kg/injection, schedule: Q01DX001 (ip), vehicle: carboxymethylcellulose (CMC) 102 % of control

COc1cccc(/C=N/C(=S)NC2(C)C3CCC(C3)C2(C)C)c1O (stereo unspecified)
inactive: endpoint: mean survival time, dose: 12.5 mg/kg/injection, schedule: Q01DX009 (ip), vehicle: olive oil, sesame oil, peanut oil 98 % of control | endpoint: mean survival time, dose: 25.0 mg/kg/injection, schedule: Q01DX009 (ip), vehicle: olive oil, sesame oil, peanut oil 96 % of control | endpoint: mean survival time, dose: 50.0 mg/kg/injection, schedule: Q01DX009 (ip), vehicle: olive oil, sesame oil, peanut oil 90 % of control | endpoint: mean survival time, dose: 100.0 mg/kg/injection, schedule: Q01DX009 (ip), vehicle: olive oil, sesame oil, peanut oil 97 % of control | endpoint: mean survival time, dose: 200.0 mg/kg/injection, schedule: Q01DX009 (ip), vehicle: olive oil, sesame oil, peanut oil 96 % of control | endpoint: mean survival time, dose: 400.0 mg/kg/injection, schedule: Q01DX009 (ip), vehicle: olive oil, sesame oil, peanut oil 90 % of control

FC(F)(F)c1[nH]nc(-c2ccc(Cl)cc2)c1N=NN1CCOCC1
inactive: endpoint: mean survival time, dose: 75.0 mg/kg/injection, schedule: Q01DX001 (ip), vehicle: other 91 % of control | endpoint: mean survival time, dose: 150.0 mg/kg/injection, schedule: Q01DX001 (ip), vehicle: other 95 % of control

CN(CCCN(C)N=Nc1ccccc1C(=O)O)N=Nc1ccccc1C(=O)O
inactive: [8] 102 % of control | [9] 100 % of control | endpoint: mean survival time, dose: 400.0 mg/kg/injection, schedule: Q04DX003 (ip), vehicle: Klucel (hydroxypropylcellulose) (HPC) 98 % of control

O=C(Nc1cc(Cl)ccc1Cl)c1ccc(C(=O)Nc2cc(Cl)ccc2Cl)cc1
inactive: [7] 94 % of control | [10] 92 % of control | [11] 95 % of control | [12] 96 % of control | [13] 94 % of control | [14] 88 % of control

c1ccc(-c2ccc(-c3nnn4ccccc34)cc2)cc1
inactive: [3] 107 % of control | [4] 86 % of control | [5] 95 % of control

O=C(CCl)Nc1cc(C(F)(F)F)ccc1Cl
inactive: endpoint: mean survival time, dose: 6.25 mg/kg/injection, schedule: Q01DX009 (ip), vehicle: saline with Tween-80 101 % of control | endpoint: mean survival time, dose: 12.5 mg/kg/injection, schedule: Q01DX009 (ip), vehicle: saline with Tween-80 101 % of control | [15] 104 % of control | [10] 104 % of control | [12] 97 % of control | [14] 97 % of control

Cc1cc(O)c(C(C)(C)C)cc1C(c1ccccc1)c1cc(C(C)(C)C)c(O)cc1C
inactive: [16] 93 % of control | [17] 93 % of control | [18] 95 % of control

CCN(CC)CC(COC)Oc1cc(C)ccc1C(C)C (stereo unspecified)
inactive: [8] 92 % of control | [9] 93 % of control

CC(=O)CC(C)(C)N
inactive: [6] 94 % of control | [7] 97 % of control | [10] 97 % of control | [11] 92 % of control

CCN(CC)Cc1cc(Nc2cc(C)nc(/N=C(\N)Nc3cc(Cl)cc(Cl)c3)n2)ccc1O
inactive: endpoint: mean survival time, dose: 12.5 mg/kg/injection, schedule: Q01DX009 (ip), vehicle: Klucel (hydroxypropylcellulose) (HPC) 93 % of control | endpoint: mean survival time, dose: 25.0 mg/kg/injection, schedule: Q01DX009 (ip), vehicle: Klucel (hydroxypropylcellulose) (HPC) 102 % of control | endpoint: mean survival time, dose: 25.0 mg/kg/injection, schedule: Q04DX002 (ip), vehicle: saline with Tween-80 97 % of control | endpoint: mean survival time, dose: 50.0 mg/kg/injection, schedule: Q01DX009 (ip), vehicle: Klucel (hydroxypropylcellulose) (HPC) 105 % of control | [1] 94 % of control | endpoint: mean survival time, dose: 100.0 mg/kg/injection, schedule: Q01DX001 (ip), vehicle: Klucel (hydroxypropylcellulose) (HPC) 95 % of control | [2] 94 % of control | endpoint: mean survival time, dose: 200.0 mg/kg/injection, schedule: Q01DX001 (ip), vehicle: Klucel (hydroxypropylcellulose) (HPC) 115 % of control

CCOC(=O)CCC(C)(C#N)c1ccccc1 (stereo unspecified)
inactive: [15] 96 % of control | [6] 93 % of control | [7] 98 % of control

CCCSC(=O)Nc1cccc(OC(=O)NC)c1
inactive: [10] 99 % of control | [12] 94 % of control | [14] 99 % of control

OC(c1ccccc1)(c1ccccc1)c1ccccc1Cl
inactive: [7] 98 % of control | [11] 101 % of control | [13] 102 % of control

CC(=O)OC1C=CS(=O)(=O)C1 (stereo unspecified)
inactive: [10] 108 % of control | [12] 103 % of control | [14] 105 % of control

N#CCCNCCNCCC#N
inactive: [6] 96 % of control | [7] 104 % of control | [11] 104 % of control

CCCCOc1ccc(OCCCC)cc1
inactive: endpoint: mean survival time, dose: 100.0 mg/kg/injection, schedule: Q04DX003 (ip), vehicle: other 114 % of control | endpoint: mean survival time, dose: 200.0 mg/kg/injection, schedule: Q04DX003 (ip), vehicle: other 97 % of control | endpoint: mean survival time, dose: 400.0 mg/kg/injection, schedule: Q04DX003 (ip), vehicle: other 101 % of control

O=C1C(=O)c2ccccc2C(O)=C1CCCc1ccc(OCc2ccccc2)cc1
inactive: endpoint: mean survival time, dose: 100.0 mg/kg/injection, schedule: Q04DX003 (ip), vehicle: saline 86 % of control | endpoint: mean survival time, dose: 200.0 mg/kg/injection, schedule: Q04DX003 (ip), vehicle: saline 88 % of control

COc1ccc(CCOS(=O)(=O)c2ccc(C)cc2)cc1
inactive: [16] 103 % of control | [17] 101 % of control | [18] 101 % of control
